Where a name gives a salt, the structure may show the parent alone. Read-outs that look alike come from different tables or passages of the source.
Key:
[1] = tested on: Human Ovary Adenocarcinoma SKOV-3 Cell Line; assay: Cytotoxicity (cell growth inhibition, trypan blue exclusion count) in SKOV-3 cultures; conditions: for docetaxel-doxorubicin mixtures based on the sum of amounts of cytostatica
Experimental: MDA-MB-231 cells were propagated in MEM culture medium with 2 mM L-glutamine, 10% fetal bovine serum (FBS) and antibiotics. SKOV-3 cells were cultured in McCoy's 5A culture medium, supplemented with 1.5 mM L-glutamine, 10% FBS and antibiotics. […] Cell propagation of all lines was carried out in BD Falcon™ 25 or 75 cm^2 cultivation flasks (Becton Dickinson Labware). A549 cells were cultured in Ham's F-12 culture medium with 1 mM L-glutamine, 10% FBS and antibiotics. Cell propagation of all lines was carried out in BD Falcon™ 25 or 75 cm^2 cultivation flasks.
These plates were seeded by cells at 8×10^3 cells/well for MDA-MB-231, at 10×10^3 cells/well for SKOV-3 or at 6×10^3 cells/well for A549 in a volume of 200 μl/well. Both flasks and cultivation plates were incubated for cell growth at 37° C. in a humidified atmosphere of 95% air and 5% CO2.
On day 1 after cell seeding 4 μL solutions of the formulations to be tested with different concentrations in appropriate solvents were added to wells with cultures (dose—response experiments). […] The cells were incubated within 2-4 consecutive days.
EF was calculated versus ADRIAMYCIN®. IC50 for the docetaxel-doxorubicin mixtures is based on the sum of amounts of cytostatica.
(§1) IC50 were based on concentration of doxorubicin. Enhancement factors were calculated versus doxorubicin.

[2] = tested on: Human Breast Adenocarcinoma MDA-MB-231 Cell Line; assay: cells
Experimental: (§2) For evaluation of cytotoxicity in vitro cells of different human tumour cell lines were purchased from American Type Culture Collection (Rockville, Md., USA): Human Breast Adenocarcinoma Cell Line MDA-MB-231 (ATCC-HTB-26, Lot 3576799), Human Ovary Adenocarcinoma Cell Line SKOV-3 (ATCC-HTB-77, Lot 3038337) and Human Lung Non-Small Cancer Cell Line A549 (ATCC-CCL-185, Lot 3244171). MDA-MB-231 cells were propagated in MEM culture medium with 2 mM L-glutamine, 10% fetal bovine serum (FBS) and antibiotics. SKOV-3 cells were cultured in McCoy's 5A culture medium, supplemented with 1.5 mM L-glutamine, 10% FBS and antibiotics. All media and supplements were purchased from Sigma-Aldrich Co. (St. Louis, Mi., USA). […]
(§3) The cell cultures in the cultivation plates were allowed to adhere for 24 hour of incubation. […] At the end of the incubation period adherent cells were detached by trypsinization and the number of viable cells was counted using trypan blue exclusion test and a hemocytometer. […] The results were expressed as mean cell number±SE and the differences between control and test series evaluated by means of Student's t-test. The drug cytotoxicity was evaluated based on the extent of cell growth inhibition.
as §1

[3] = tested on: Human Lung Non-Small Cancer Cell Line A549; assay: Cytotoxicity (cell growth inhibition, trypan blue exclusion count) in A549 cultures; conditions: based on concentration of doxorubicin
Experimental: as §2, §3, §1

[4] = SK-OV-3, 72 h, SKOV-3, day 3, mean ± SE, read-out: IC50 day 3
[5] = SK-OV-3, 96 h, SKOV-3, day 4, mean ± SE, read-out: IC50 day 4

| IC50 ([2]; MDA-MB-231, 72 h, read-out: IC50 day 3) [µM] | IC50 ([2]; MDA-MB-231, 96 h, read-out: IC50 day 4) [µM] | SMILES | IC50 [1, 4] [µM] | IC50 [1, 5] [µM] | IC50 ([3]; 72 h, A549, day 3, mean ± SE, read-out: IC50 day 3) [µM] | IC50 ([3]; 96 h, A549, day 4, mean ± SE, read-out: IC50 day 4) [µM] |
| --- | --- | --- | --- | --- | --- | --- |
| 0.19 | 0.051 | COc1cccc2c1C(=O)c1c(O)c3c(c(O)c1C2=O)C[C@@](O)(C(=O)CO)C[C@@H]3O[C@H]1C[C@H](N)[C@H](O)[C@H](C)O1 [ADRIAMYCIN ®, doxorubicin hydrochloride] | 0.085 | 0.048 | 0.012 | 0.027 |
|  |  | CC(=O)O[C@@]12CO[C@@H]1C[C@H](O)[C@@]1(C)C(=O)[C@H](O)C3=C(C)[C@@H](OC(=O)[C@H](O)[C@@H](NC(=O)OC(C)(C)C)c4ccccc4)C[C@@](O)([C@@H](OC(=O)c4ccccc4)[C@H]21)C3(C)C [Docetaxel, docetaxel] | 0.0907 | 0.0285 |  |  |

Source: patent US8324274B2, “Drug delivery system for administration of a water soluble, cationic and amphiphilic pharmaceutically active substance” (Ardenia Invesments, Ltd., priority 2007, dated 2012)
